# Key:
# [1] = molecular target: T1, SCARB1 (Homo sapiens, UniProt Q8WTV0); test: Microscale thermophoresis (MST) binding
# T1 construct: purchased Hölzel Biotech SC1-H82E5
# T1 sequence (Q8WTV0 1-552): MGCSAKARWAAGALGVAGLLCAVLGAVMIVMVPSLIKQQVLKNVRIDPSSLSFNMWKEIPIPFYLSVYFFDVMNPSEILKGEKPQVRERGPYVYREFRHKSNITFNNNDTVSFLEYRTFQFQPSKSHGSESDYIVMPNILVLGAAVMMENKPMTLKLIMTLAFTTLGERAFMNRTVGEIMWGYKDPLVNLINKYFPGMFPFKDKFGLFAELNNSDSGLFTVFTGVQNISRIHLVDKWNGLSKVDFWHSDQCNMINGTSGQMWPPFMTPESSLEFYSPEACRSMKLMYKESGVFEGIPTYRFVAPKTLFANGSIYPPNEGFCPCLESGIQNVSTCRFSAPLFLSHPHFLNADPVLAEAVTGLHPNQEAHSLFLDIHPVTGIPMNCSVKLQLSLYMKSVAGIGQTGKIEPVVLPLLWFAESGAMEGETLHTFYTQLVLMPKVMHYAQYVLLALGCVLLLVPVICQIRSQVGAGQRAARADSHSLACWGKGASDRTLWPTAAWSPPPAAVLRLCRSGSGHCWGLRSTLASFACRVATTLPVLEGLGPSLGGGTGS
# Description: reaction was terminated by addition of 800 μL EtOAc+0.5% AcOH, 300 μL H2O and 100 μL internal standard (13,14-dihydro-15-ketoprostaglandin -d4, 300 pmol/sample, Cayman Chemical, Ann Arbor, USA, Cat# 10010606). Of the organic phase 600 μL was transferred into a fresh Eppendorf tube and the solvent removed in a SpeedVac. The residue was dissolved in 100 μL acetonitrile/ H2O (1:1) and measured with LC-MS/MS. Gradient: Solvent A = H2O + 0.1% formic acid, solvent B = acetonitrile + 0.5% formic acid, flow rate = 0 .4 mL/min, run length 6 min, gradient = 0 min 30% B, 1 min 30% B, 2 min 31.5% B, 2.1 min 95% B, 4 min 95% B, 4.1 min 30% B, 6 min 30% B. MS settings: Capillary = 3.0 kV, sampling cone = […], extraction cone […], source temperature = 100 °C, desolvat ion temperature = 350 °C, cone gas flow = 50.0 L/h, desolvation gas flow = 650.0 L/h, scan time = 0.250 s, inter-scan time = 0.020 s, mass range = 100 -800 Da. Masses of 15 -ketoprostaglandin (349.2 Da, collision energy = 21.0 eV), 13,14 -dihydro-15-ketoprostaglandin (351.2 Da, collision energy = 18.0 eV) and 13,14-dihydro-15-ketoprostaglandin (355.2 Da, collision energy = 10.0 eV) were set for MRM. The areas under the curve (AUC) were used to quantify 15 -keto-PGE2 and 13,14 -dihydro-15-keto-PGE2 levels by determining peak areas in relation to internal standard […]. The experiment was […]
# Microscale thermophoresis (MST) was performed as follows: Monolith His -Tag Labeling Kit RED -tris-NTA 2nd Generation (NanoTemper Technologies, Munich, Germany, Cat# MO -L018) was used for KD determination as recommended by the purchaser. Briefly, SCARB1 ( Hölzel Biotech, Cologne, Germany, Cat# SC1-H82E5) concentration (50 nM) was adjusted in assay buffer and labelled by the RED -tris-NTA dye (100 nM). This mixture was added to compound dilution series (c = 1 mM to 30 nM) and measured using Monolith NT.115 (NanoTemper Technologies, Munich, Germany ). The experiment was performed once and analysed with the MO Affinity Analysis software (NanoTemper).
# NUDT1 target validation efforts:
# Recombinant NUDT1 expression & purification […]
# [2] = molecular target: T2, AIFM1 (Homo sapiens, UniProt O95831); test: Gel-based labelling of recombinant AIFM1 spiked into HEK-293 lysate; type: binding; conditions: 5 μM probe, AIFM1 spiked in HEK-293 lysate
# T2 construct: made in house; host or cells: E. coli Rosetta2
# T2 sequence (O95831 102-613): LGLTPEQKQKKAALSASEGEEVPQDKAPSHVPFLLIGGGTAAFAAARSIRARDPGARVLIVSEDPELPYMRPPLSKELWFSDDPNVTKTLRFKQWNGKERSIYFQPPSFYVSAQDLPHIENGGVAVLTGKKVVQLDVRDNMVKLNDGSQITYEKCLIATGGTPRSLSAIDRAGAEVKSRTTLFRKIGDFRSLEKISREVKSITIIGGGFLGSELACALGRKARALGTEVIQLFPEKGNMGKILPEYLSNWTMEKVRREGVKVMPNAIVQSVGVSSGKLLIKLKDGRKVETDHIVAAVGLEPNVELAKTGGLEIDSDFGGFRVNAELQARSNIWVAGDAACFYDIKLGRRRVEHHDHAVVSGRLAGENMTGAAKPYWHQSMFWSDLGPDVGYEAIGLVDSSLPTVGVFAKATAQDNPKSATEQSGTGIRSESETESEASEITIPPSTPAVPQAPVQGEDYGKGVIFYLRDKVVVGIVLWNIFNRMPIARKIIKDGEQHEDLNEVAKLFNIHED
# Description: AIFM1 expression & purification
# Recombinant AIFM1 was expressed in a Rosetta2 E. coli strain. Bacterial growth was conducted in LB media supplemented with riboflavin and FAD shaking at 37°C and 180 rpm. Expression was induced with 1.0 mM IPTG and incubated for further 16 h before harvesting. Cells were harvested on ice in PBS and cell pellets stored at -20°C. Cells were lysed by French press and the 6xHis-tagged constructs were purified by Immobilized Metal Affinity Chromatography using Ni Sepharose (6 Fast Flow, GE). The centrifugation-cleared bacterial lysate was bound to beads in binding buffer (200 mM NaCl, 20 mM Tris/Cl pH = 7.4). […]
# For gel-based fluorescence labelling of recombinant AIFM1, 1.7 µM recombinant protein was spiked - in to PBS or PBS -diluted HEK293 cell lysate ( 100 µg per reaction sample). […]
# Click Master-mix (8 µL, 100 µM TAMRA-azide, Baseclick, Neuried, Germany, Cat# BCFA-008-10, 500 µM BTTAA ligand, Jena Bioscience, Jena, Germany, CLK -067, 1 mM CuSO4) was added and the CuAAC reaction started by addition of 2 µL of aq. sodium ascorbate (c end= 2 mM). […] Fluorescence scanning was performed using a Las-3000 fluorescence darkbox (Fujifilm, Minato, Japan) with a Fujinon VRF 43LMD Lens, 605DF40 filter and 520 nm EPI excitation wavelength and loading controls were developed with Coomassie stain afterwards. […]
# [3] = tested on: HEK‐293 cells; test: Whole proteome analysis (LC-MS/MS, LFQ) of treated HEK-293 cells; conditions: 1 µM, 24 h, versus vehicle
SMILES,"Kd ([1]; acquisition software MO.Control, read-out: binding affinity (Kd)) [µM]",binding to SCARB1 ([1]; aggregation/precipitation at high compound concentrations),gel-based labelling of recombinant AIFM1 by probe [2],pattern of downregulated proteins and affected pathways [3]
C#CCCC1(CCN2CCN(c3cc4c(cc3F)c(=O)c(C(=O)O)cn4C3CC3)CC2)N=N1 [Cipro P1],394,weak binding,strong fluorescent band corresponding to the molecular weight of AIFM1,–
Cc1ccccc1CN1C(=O)C2=C(CCN(Cc3ccccc3)C2)N2CCN=C12 [ONC201],–,–,–,strikingly similar to Ciprofloxacin treated cells
